The text below walks through data of patent publication US9809623B2, “α4β7 peptide monomer and dimer antagonists” (Protagonist Therapeutics, Inc., priority 2014, dated 2017).

Numbered stars: 1 amine (or outer) side, 2 acyl side, 3 side chain; on linkers, the order of the positions; unused ones are H or OH. Bridge positions count the residues as written; N and C are the ends. Square brackets hold non-standard residues; d marks the D form. Peptide text beside a SMILES is read from it. I, II: the chains in the order shown. d1Nal = N[C@H](Cc1cccc2ccccc12)C(=O)O; d2Nal = N[C@H](Cc1ccc2ccccc2c1)C(=O)O; Diglycolyl = O=C(COCC(=O)[*:2])[*:1]; NMeR = CN[C@@H](CCCNC(=N)N)C(=O)O; NMeE = CN[C@@H](CCC(=O)O)C(=O)O; Pen = CC(C)(S)[C@H](N)C(=O)O

Chain of α4β7 (P13612 34-1032): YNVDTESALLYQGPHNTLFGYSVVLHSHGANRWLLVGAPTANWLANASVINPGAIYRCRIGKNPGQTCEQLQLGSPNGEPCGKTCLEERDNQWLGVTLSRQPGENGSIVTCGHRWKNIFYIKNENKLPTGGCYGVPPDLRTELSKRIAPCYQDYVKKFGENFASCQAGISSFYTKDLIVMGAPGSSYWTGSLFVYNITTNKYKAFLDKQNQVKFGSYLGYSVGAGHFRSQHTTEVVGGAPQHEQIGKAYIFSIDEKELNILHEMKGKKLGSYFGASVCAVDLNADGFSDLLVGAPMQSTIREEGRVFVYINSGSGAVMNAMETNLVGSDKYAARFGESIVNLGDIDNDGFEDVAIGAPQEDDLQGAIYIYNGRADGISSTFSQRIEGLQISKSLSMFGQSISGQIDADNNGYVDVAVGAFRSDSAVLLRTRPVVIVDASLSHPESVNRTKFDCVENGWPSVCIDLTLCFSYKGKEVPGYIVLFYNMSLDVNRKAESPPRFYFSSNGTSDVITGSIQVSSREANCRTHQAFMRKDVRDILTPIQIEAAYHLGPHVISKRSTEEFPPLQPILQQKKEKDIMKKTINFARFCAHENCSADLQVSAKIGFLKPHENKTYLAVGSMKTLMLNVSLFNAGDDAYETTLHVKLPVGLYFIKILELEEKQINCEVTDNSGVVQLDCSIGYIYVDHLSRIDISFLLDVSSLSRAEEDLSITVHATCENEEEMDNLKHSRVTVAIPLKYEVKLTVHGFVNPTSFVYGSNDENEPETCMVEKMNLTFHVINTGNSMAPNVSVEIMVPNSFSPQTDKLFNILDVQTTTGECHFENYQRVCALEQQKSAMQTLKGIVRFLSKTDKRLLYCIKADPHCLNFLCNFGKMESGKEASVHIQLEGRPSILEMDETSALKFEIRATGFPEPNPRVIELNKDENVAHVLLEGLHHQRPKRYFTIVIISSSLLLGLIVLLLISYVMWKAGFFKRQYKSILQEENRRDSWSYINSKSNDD
Chain of α4β7 (P26010 20-798): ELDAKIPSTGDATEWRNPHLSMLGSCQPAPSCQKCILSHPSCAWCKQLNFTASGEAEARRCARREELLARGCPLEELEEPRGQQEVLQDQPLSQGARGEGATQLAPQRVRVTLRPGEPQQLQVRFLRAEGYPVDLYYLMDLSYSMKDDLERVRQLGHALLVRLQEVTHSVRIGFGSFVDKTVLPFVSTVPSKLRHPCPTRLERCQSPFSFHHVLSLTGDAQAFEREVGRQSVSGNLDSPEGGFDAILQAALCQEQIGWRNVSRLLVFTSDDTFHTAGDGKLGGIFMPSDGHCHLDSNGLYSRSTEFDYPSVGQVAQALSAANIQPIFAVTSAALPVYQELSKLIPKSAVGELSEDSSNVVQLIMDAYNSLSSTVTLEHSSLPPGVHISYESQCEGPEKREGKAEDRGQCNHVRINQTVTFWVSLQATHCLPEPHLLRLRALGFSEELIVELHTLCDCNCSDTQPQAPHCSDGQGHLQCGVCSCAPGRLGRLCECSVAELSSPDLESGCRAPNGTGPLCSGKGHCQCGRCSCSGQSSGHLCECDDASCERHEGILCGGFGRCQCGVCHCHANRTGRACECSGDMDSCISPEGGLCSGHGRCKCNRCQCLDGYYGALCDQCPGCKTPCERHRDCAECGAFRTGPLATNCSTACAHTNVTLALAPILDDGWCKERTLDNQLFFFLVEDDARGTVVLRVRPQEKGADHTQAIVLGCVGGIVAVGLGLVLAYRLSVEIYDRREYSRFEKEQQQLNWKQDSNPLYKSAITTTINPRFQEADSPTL

The assay addresses α4β7 (Homo sapiens, UniProt P13612+P26010). The experiment in a line: α4β7-MAdCAM Cell Adhesion Assay (RPMI 8866 human cells). Also on record: host or cells: RPMI 8866 human B lymphoblastoid cells. It is filed as cell-based. Conditions: Table 3-B, Potency (α4β7); range classes; read-out: α4β7 cell (Hu) IC50. The procedure:
RPMI 8866 human cells (Sigma #95041316) were cultured in RPMI 1640 HEPES medium (Invitrogen #22400-089) supplemented with 10% serum (Fetal Bovine Serum, Invitrogen #16140-071), 1 mM sodium pyruvate (Invitrogen #11360-070), 2 mM L-glutamine (Invitrogen #25030-081) and Penicillin-Streptomycin (Invitrogen #15140-122) at 100 units of penicillin and 100 μg of streptomycin per ml. The cells were washed two times in DMEM medium (ATCC #30-2002) supplemented with 0.1% BSA, 10 mM HEPES pH 7 and 1 mM MnCl2. The cells were re-suspended in supplemented DMEM medium at a density of 4×10^6 cells/ml.
A Nunc MaxiSorp plate was coated with rh MAdCAM-1/Fc Chimera (R&D #6065-MC) at 200 ng per well in 50 ul per well in 1×PBS and incubated at 4° C. overnight. The solution was then removed by shaking, blocked with 250 ul per well PBS containing 1% BSA, and incubated at 37° C. for 1 hr. The solution was removed by shaking. Peptides were diluted by serial dilution in a final volume of 50 ul per well (2× concentration). To each well, 50 ul of cells (200,000 cells) were added and the plate was incubated at 37° C., 5% CO2 for 30-45 min to allow cell adhesion. The wells were washed manually three times (100 ul per wash) with supplemented DMEM. After the final wash, 100 ul/well of supplemented DMEM and 10 ul/well of MTT reagent (ATTC cat#30-1010K) were added. The plate was incubated at 37° C., 5% CO2 for 2-3 hrs until a purple precipitate was visible. 100 ul of Detergent Reagent (ATTC cat#30-1010K) was added to each well. The plate was covered from the light, wrapped in Parafilm to prevent evaporation, and left overnight at room temperature in the dark. The plate was shaken for 5 min and the absorbance at 570 nm was measured. To calculate the dose response, the absorbance value of control wells not containing cells was subtracted from each test well.
Turning to `CC(=O)N[C@@H]1C(=O)N(C)[C@@H](CCCNC(=N)N)C(=O)N[C@@H](CO)C(=O)N[C@@H](CC(=O)O)C(=O)N[C@@H]([C@@H](C)O)C(=O)N[C@@H](CC(C)C)C(=O)N[C@H](C(=O)N[C@@H](Cc2c[nH]cn2)C(=O)N[C@@H](CCC(=O)O)C(=O)N[C@H](CCCCNC(=O)COCC(=O)NCCCC[C@@H](NC(=O)[C@H](CCC(=O)O)NC(=O)[C@H](Cc2c[nH]cn2)NC(=O)[C@H]2NC(=O)[C@H](CC(C)C)NC(=O)[C@H]([C@@H](C)O)NC(=O)[C@H](CC(=O)O)NC(=O)[C@H](CO)NC(=O)[C@H](CCCNC(=N)N)N(C)C(=O)[C@@H](NC(C)=O)C(C)(C)SSC2(C)C)C(N)=O)C(N)=O)C(C)(C)SSC1(C)C` [compound 25] (I: Ac-[Pen][NMeR]SDTL[Pen]HE[dK]-NH2 / II: Ac-[Pen][NMeR]SDTL[Pen]HE[dK]-NH2; disulfide I:1-I:7, II:1-II:7; linker I:10-II:10 via Diglycolyl), the IC50 was in the range of 10 to 25 nM.

Turning to `CC(=O)N[C@@H]1C(=O)N(C)[C@@H](CCCNC(=N)N)C(=O)N[C@@H](CO)C(=O)N[C@@H](CC(=O)O)C(=O)N[C@@H]([C@@H](C)O)C(=O)N[C@@H](CC(C)C)C(=O)N[C@H](C(=O)N[C@@H](Cc2c[nH]cn2)C(=O)N[C@@H](Cc2ccc(O)cc2)C(=O)N[C@H](CCCCNC(=O)COCC(=O)NCCCC[C@@H](NC(=O)[C@H](Cc2ccc(O)cc2)NC(=O)[C@H](Cc2c[nH]cn2)NC(=O)[C@H]2NC(=O)[C@H](CC(C)C)NC(=O)[C@H]([C@@H](C)O)NC(=O)[C@H](CC(=O)O)NC(=O)[C@H](CO)NC(=O)[C@H](CCCNC(=N)N)N(C)C(=O)[C@@H](NC(C)=O)C(C)(C)SSC2(C)C)C(N)=O)C(N)=O)C(C)(C)SSC1(C)C` [compound 26] (I: Ac-[Pen][NMeR]SDTL[Pen]HY[dK]-NH2 / II: Ac-[Pen][NMeR]SDTL[Pen]HY[dK]-NH2; disulfide I:1-I:7, II:1-II:7; linker I:10-II:10 via Diglycolyl), the IC50 lay within 100 to 500 nM.

For `CC(=O)N[C@@H]1C(=O)N(C)[C@@H](CCCNC(=N)N)C(=O)N[C@@H](CO)C(=O)N[C@@H](CC(=O)O)C(=O)N[C@@H]([C@@H](C)O)C(=O)N[C@@H](CC(C)C)C(=O)N[C@H](C(=O)N[C@H](Cc2c[nH]c3ccccc23)C(=O)N[C@@H](CCC(=O)O)C(=O)N[C@H](CCCCNC(=O)COCC(=O)NCCCC[C@@H](NC(=O)[C@H](CCC(=O)O)NC(=O)[C@@H](Cc2c[nH]c3ccccc23)NC(=O)[C@H]2NC(=O)[C@H](CC(C)C)NC(=O)[C@H]([C@@H](C)O)NC(=O)[C@H](CC(=O)O)NC(=O)[C@H](CO)NC(=O)[C@H](CCCNC(=N)N)N(C)C(=O)[C@@H](NC(C)=O)C(C)(C)SSC2(C)C)C(N)=O)C(N)=O)C(C)(C)SSC1(C)C` [compound 28] (I: Ac-[Pen][NMeR]SDTL[Pen][dW]E[dK]-NH2 / II: Ac-[Pen][NMeR]SDTL[Pen][dW]E[dK]-NH2; disulfide I:1-I:7, II:1-II:7; linker I:10-II:10 via Diglycolyl), the half-maximal inhibitory concentration (IC50) was in the range of 50 to 100 nM.

With `CC(=O)N[C@@H]1C(=O)N(C)[C@@H](CCCNC(=N)N)C(=O)N[C@@H](CO)C(=O)N[C@@H](CC(=O)O)C(=O)N[C@@H]([C@@H](C)O)C(=O)N[C@@H](CC(C)C)C(=O)N[C@H](C(=O)N[C@H](Cc2ccccc2)C(=O)N[C@@H](CCC(=O)O)C(=O)N[C@H](CCCCNC(=O)COCC(=O)NCCCC[C@@H](NC(=O)[C@H](CCC(=O)O)NC(=O)[C@@H](Cc2ccccc2)NC(=O)[C@H]2NC(=O)[C@H](CC(C)C)NC(=O)[C@H]([C@@H](C)O)NC(=O)[C@H](CC(=O)O)NC(=O)[C@H](CO)NC(=O)[C@H](CCCNC(=N)N)N(C)C(=O)[C@@H](NC(C)=O)C(C)(C)SSC2(C)C)C(N)=O)C(N)=O)C(C)(C)SSC1(C)C` [compound 30] (I: Ac-[Pen][NMeR]SDTL[Pen][dF]E[dK]-NH2 / II: Ac-[Pen][NMeR]SDTL[Pen][dF]E[dK]-NH2; disulfide I:1-I:7, II:1-II:7; linker I:10-II:10 via Diglycolyl), the IC50 lay in the range of 100 to 500 nM.

For `CC(=O)N[C@@H]1C(=O)N(C)[C@@H](CCCNC(=N)N)C(=O)N[C@@H](CO)C(=O)N[C@@H](CC(=O)O)C(=O)N[C@@H]([C@@H](C)O)C(=O)N[C@@H](CC(C)C)C(=O)N[C@H](C(=O)N[C@@H](Cc2c[nH]c3ccccc23)C(=O)N(C)[C@@H](CCC(=O)O)C(=O)N[C@H](CCCCNC(=O)COCC(=O)NCCCC[C@@H](NC(=O)[C@H](CCC(=O)O)N(C)C(=O)[C@H](Cc2c[nH]c3ccccc23)NC(=O)[C@H]2NC(=O)[C@H](CC(C)C)NC(=O)[C@H]([C@@H](C)O)NC(=O)[C@H](CC(=O)O)NC(=O)[C@H](CO)NC(=O)[C@H](CCCNC(=N)N)N(C)C(=O)[C@@H](NC(C)=O)C(C)(C)SSC2(C)C)C(N)=O)C(N)=O)C(C)(C)SSC1(C)C` [compound 31] (I: Ac-[Pen][NMeR]SDTL[Pen]W[NMeE][dK]-NH2 / II: Ac-[Pen][NMeR]SDTL[Pen]W[NMeE][dK]-NH2; disulfide I:1-I:7, II:1-II:7; linker I:10-II:10 via Diglycolyl), the IC50 was in the range of 50 to 100 nM.

As to `CC(=O)N[C@@H]1C(=O)N(C)[C@@H](CCCNC(=N)N)C(=O)N[C@@H](CO)C(=O)N[C@@H](CC(=O)O)C(=O)N[C@@H]([C@@H](C)O)C(=O)N[C@@H](CC(C)C)C(=O)N[C@H](C(=O)N[C@H](Cc2cccc3ccccc23)C(=O)N[C@@H](CCC(=O)O)C(=O)N[C@H](CCCCNC(=O)COCC(=O)NCCCC[C@@H](NC(=O)[C@H](CCC(=O)O)NC(=O)[C@@H](Cc2cccc3ccccc23)NC(=O)[C@H]2NC(=O)[C@H](CC(C)C)NC(=O)[C@H]([C@@H](C)O)NC(=O)[C@H](CC(=O)O)NC(=O)[C@H](CO)NC(=O)[C@H](CCCNC(=N)N)N(C)C(=O)[C@@H](NC(C)=O)C(C)(C)SSC2(C)C)C(N)=O)C(N)=O)C(C)(C)SSC1(C)C` [compound 34] (I: Ac-[Pen][NMeR]SDTL[Pen][d1Nal]E[dK]-NH2 / II: Ac-[Pen][NMeR]SDTL[Pen][d1Nal]E[dK]-NH2; disulfide I:1-I:7, II:1-II:7; linker I:10-II:10 via Diglycolyl), the IC50 lay within 25 to 50 nM.

As for `CC(=O)N[C@@H]1C(=O)N(C)[C@@H](CCCNC(=N)N)C(=O)N[C@@H](CO)C(=O)N[C@@H](CC(=O)O)C(=O)N[C@@H]([C@@H](C)O)C(=O)N[C@@H](CC(C)C)C(=O)N[C@H](C(=O)N[C@H](Cc2ccc3ccccc3c2)C(=O)N[C@@H](CCC(=O)O)C(=O)N[C@H](CCCCNC(=O)COCC(=O)NCCCC[C@@H](NC(=O)[C@H](CCC(=O)O)NC(=O)[C@@H](Cc2ccc3ccccc3c2)NC(=O)[C@H]2NC(=O)[C@H](CC(C)C)NC(=O)[C@H]([C@@H](C)O)NC(=O)[C@H](CC(=O)O)NC(=O)[C@H](CO)NC(=O)[C@H](CCCNC(=N)N)N(C)C(=O)[C@@H](NC(C)=O)C(C)(C)SSC2(C)C)C(N)=O)C(N)=O)C(C)(C)SSC1(C)C` [compound 35] (I: Ac-[Pen][NMeR]SDTL[Pen][d2Nal]E[dK]-NH2 / II: Ac-[Pen][NMeR]SDTL[Pen][d2Nal]E[dK]-NH2; disulfide I:1-I:7, II:1-II:7; linker I:10-II:10 via Diglycolyl), the IC50 was 100 to 500 nM.
